In brackets after ≈: the same amount, converted by molar mass.
What was measured:
Type in all cases: functional
Pseudomonas aeruginosa [1] = experiment: Antibacterial activity against Pseudomonas aeruginosa NCIM 2036 measured after 8 hrs by spectrophotometric method; settings: NCIM 2036, 8 h
Staphylococcus aureus [2] = experiment: Antibacterial activity against Staphylococcus aureus NCIM 2079 measured after 12 hrs by spectrophotometric method; settings: NCIM 2079, 12 h
Escherichia coli [3] = experiment: Antibacterial activity against Escherichia coli NCIM 2688 measured after 8 hrs by spectrophotometric method; settings: NCIM 2688, 8 h
Bacillus subtilis [4] = experiment: Antibacterial activity against Bacillus subtilis NCIM 2010 measured after 12 hrs by spectrophotometric method; settings: NCIM 2010, 12 h
[5] = test system: Mycobacterium tuberculosis; experiment: Antitubercular activity against dormant stage Mycobacterium tuberculosis H37Ra measured after 12 days by XTT assay; settings: 288 h
Escherichia coli [6] = experiment: Antibacterial activity against Escherichia coli NCIM 2688 at 30 ug/ml measured after 8 hrs by spectrophotometric method; settings: NCIM 2688, 8 h
Escherichia coli [7] = experiment: Antibacterial activity against Escherichia coli NCIM 2688 at 10 ug/ml measured after 8 hrs by spectrophotometric method; settings: NCIM 2688, 8 h
Escherichia coli [8] = experiment: Antibacterial activity against Escherichia coli NCIM 2688 at 3 ug/ml measured after 8 hrs by spectrophotometric method; settings: NCIM 2688, 8 h
Pseudomonas aeruginosa [9] = experiment: Antibacterial activity against Pseudomonas aeruginosa NCIM 2036 at 30 ug/ml measured after 8 hrs by spectrophotometric method; settings: NCIM 2036, 8 h
Pseudomonas aeruginosa [10] = experiment: Antibacterial activity against Pseudomonas aeruginosa NCIM 2036 at 10 ug/ml measured after 8 hrs by spectrophotometric method; settings: NCIM 2036, 8 h
Pseudomonas aeruginosa [11] = experiment: Antibacterial activity against Pseudomonas aeruginosa NCIM 2036 at 3 ug/ml measured after 8 hrs by spectrophotometric method; settings: NCIM 2036, 8 h
Staphylococcus aureus [12] = experiment: Antibacterial activity against Staphylococcus aureus NCIM 2079 at 30 ug/ml measured after 12 hrs by spectrophotometric method; settings: NCIM 2079, 12 h
Staphylococcus aureus [13] = experiment: Antibacterial activity against Staphylococcus aureus NCIM 2079 at 10 ug/ml measured after 12 hrs by spectrophotometric method; settings: NCIM 2079, 12 h
Staphylococcus aureus [14] = experiment: Antibacterial activity against Staphylococcus aureus NCIM 2079 at 3 ug/ml measured after 12 hrs by spectrophotometric method; settings: NCIM 2079, 12 h
Bacillus subtilis [15] = experiment: Antibacterial activity against Bacillus subtilis NCIM 2010 at 30 ug/ml measured after 12 hrs by spectrophotometric method; settings: NCIM 2010, 12 h
Bacillus subtilis [16] = experiment: Antibacterial activity against Bacillus subtilis NCIM 2010 at 10 ug/ml measured after 12 hrs by spectrophotometric method; settings: NCIM 2010, 12 h
Bacillus subtilis [17] = experiment: Antibacterial activity against Bacillus subtilis NCIM 2010 at 3 ug/ml measured after 12 hrs by spectrophotometric method; settings: NCIM 2010, 12 h
[18] = test system: Mycobacterium tuberculosis; experiment: Antitubercular activity against dormant stage Mycobacterium tuberculosis H37Ra at 30 ug/ml measured after 12 days by XTT assay; settings: 288 h
[19] = test system: Mycobacterium tuberculosis; experiment: Antitubercular activity against dormant stage Mycobacterium tuberculosis H37Ra at 10 ug/ml measured after 12 days by XTT assay; settings: 288 h
[20] = test system: Mycobacterium tuberculosis; experiment: Antitubercular activity against dormant stage Mycobacterium tuberculosis H37Ra at 3 ug/ml measured after 12 days by XTT assay; settings: 288 h

Row | Compound | IC50 (Pseudomonas aeruginosa [1]) [µg/mL] | MIC (Pseudomonas aeruginosa [1]) [µg/mL] | IC50 (Staphylococcus aureus [2]) [µg/mL] | MIC (Staphylococcus aureus [2]) [µg/mL] | IC50 (Escherichia coli [3]) [µg/mL] | MIC (Escherichia coli [3]) [µg/mL] | IC50 (Bacillus subtilis [4]) [µg/mL] | MIC (Bacillus subtilis [4]) [µg/mL] | IC50 [5] [µg/mL] | MIC [5] [µg/mL] | inhibition at 30 µg/mL (Escherichia coli [6]) [%] | inhibition at 10 µg/mL (Escherichia coli [7]) [%] | inhibition at 3 µg/mL (Escherichia coli [8]) [%] | inhibition at 30 µg/mL (Pseudomonas aeruginosa [9]) [%] | inhibition at 10 µg/mL (Pseudomonas aeruginosa [10]) [%] | inhibition at 3 µg/mL (Pseudomonas aeruginosa [11]) [%] | inhibition at 30 µg/mL (Staphylococcus aureus [12]) [%] | inhibition at 10 µg/mL (Staphylococcus aureus [13]) [%] | inhibition at 3 µg/mL (Staphylococcus aureus [14]) [%] | inhibition at 30 µg/mL (Bacillus subtilis [15]) [%] | further results
1 | O=C1O[C@@H](CNS(=O)(=O)c2cccc(C(F)(F)F)c2)CN1c1ccc(N2CC3(COC3)C2)c(F)c1 | > 100 | > 100 | > 100 | > 100 | 0.57 (≈ 1.11 µM) | 3.03 (≈ 5.88 µM) | > 100 | > 100 | > 100 | > 100 | 99.5 | 97.5 | 90.5 | 70.8 | 43 | 0.66 | 19.5 | 17.3 | -2.71 | 25 | inhibition at 10 µg/mL (Bacillus subtilis [16]): 17.5%; inhibition at 3 µg/mL (Bacillus subtilis [17]): 11.2%; inhibition at 30 µg/mL [18]: 25.1%; inhibition at 10 µg/mL [19]: -59%; inhibition at 3 µg/mL [20]: 5.38%
2 | COc1ccc(NC(=S)NC[C@H]2CN(c3ccc(N4CC5(COC5)C4)c(F)c3)C(=O)O2)cc1 | > 100 | > 100 | 0.74 to 100 (≈ 1.57 to 212 µM) | 16.1 to 100 (≈ 34.1 to 212 µM) | 1.1 (≈ 2.33 µM) | 10.7 (≈ 22.6 µM) | 1.1 (≈ 2.33 µM) | 8.78 (≈ 18.6 µM) | > 100 | > 100 | 98 | 89.4 | 82.2 | 58.5 | 30.1 | 17.7 | 98.3 | 88.7 | 81.4 | 100 | inhibition at 10 µg/mL (Bacillus subtilis [16]): 95.3%; inhibition at 3 µg/mL (Bacillus subtilis [17]): 77.9%; inhibition at 30 µg/mL [18]: 23.3%; inhibition at 10 µg/mL [19]: -3.34%; inhibition at 3 µg/mL [20]: 14.3%
3 | O=C(NC[C@H]1CN(c2ccc(N3CC4(COC4)C3)c(F)c2)C(=O)O1)c1cccnc1 | > 100 | > 100 | 1.03 (≈ 2.5 µM) | 18.3 (≈ 44.3 µM) | 0.67 (≈ 1.62 µM) | 8.33 (≈ 20.2 µM) | > 100 | > 100 | > 100 | > 100 | 94.8 | 90.5 | 84.8 | 56.3 | 49.5 | 40.9 | 96.2 | 85.9 | 78.2 | 99.2 | inhibition at 10 µg/mL (Bacillus subtilis [16]): 77.1%; inhibition at 3 µg/mL (Bacillus subtilis [17]): 60.8%; inhibition at 30 µg/mL [18]: 63.1%; inhibition at 10 µg/mL [19]: 5.21%; inhibition at 3 µg/mL [20]: 3.2%
4 | O=C1O[C@@H](CNC(=S)Nc2cccc(C(F)(F)F)c2)CN1c1ccc(N2CC3(COC3)C2)c(F)c1 | > 100 | > 100 | > 100 | > 100 | 0.49 (≈ 0.96 µM) | 2.41 (≈ 4.72 µM) | > 100 | > 100 | > 100 | > 100 | 96.3 | 95.8 | 93.3 | 79.6 | 67 | 45.2 | 94.5 | 79.2 | 64.1 | 97.2 | inhibition at 10 µg/mL (Bacillus subtilis [16]): 80.2%; inhibition at 3 µg/mL (Bacillus subtilis [17]): 65.9%; inhibition at 30 µg/mL [18]: 78%; inhibition at 10 µg/mL [19]: 44.5%; inhibition at 3 µg/mL [20]: 10.7%
5 | O=C1O[C@@H](CNC(=S)Nc2ccc([N+](=O)[O-])cc2)CN1c1ccc(N2CC3(COC3)C2)c(F)c1 | > 100 | > 100 | > 100 | > 100 | > 100 | > 100 | > 100 | > 100 | > 100 | > 100 | 65.5 | 61 | 51.8 | 73.6 | 41.8 | 9.11 | 81 | 74.5 | 66.7 | 80.4 | inhibition at 10 µg/mL (Bacillus subtilis [16]): 76.2%; inhibition at 3 µg/mL (Bacillus subtilis [17]): 62.7%; inhibition at 30 µg/mL [18]: -13.5%; inhibition at 10 µg/mL [19]: 4.66%; inhibition at 3 µg/mL [20]: 9.41%

Reference: ChEMBL document CHEMBL3865816, “Design, synthesis and biological evaluation of novel azaspiro analogs of linezolid as antibacterial and antitubercular agents” (Eur J Med Chem, 2016)
